One assay has as its target EGFR WT (Homo sapiens (Human), UniProt P00533). Kind of assay: ErbB enzyme assay (CisBio HTRF-KinEASE-TK), EGFR WT. The format is biochemical. Particulars: ATP at Km (25 μM), 1 h incubation. The method in brief: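 Tyrosine kinase HTRF, 1 h RT reaction → quench (Sa-XL665/TK-Ab-Cryptate) → 1 h RT → 655/620 ratio.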
Another assay deals with ErbB2 V777L (Homo sapiens (Human), UniProt P04626, V777L). The assay can be described thus: ErbB enzyme assay (CisBio HTRF-KinEASE-TK), ErbB2 V777L. The format is biochemical. Put shortly:
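HTRF KinEASE-TK tyrosine-kinase read-out of substrate phosphorylation after a final 1 h at ambient temperature, from the 655/620 nm emission ratio.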

The structures appear in SMILES notation.

ErbB2 V777L, sequence (P04626 23-1255 V777L): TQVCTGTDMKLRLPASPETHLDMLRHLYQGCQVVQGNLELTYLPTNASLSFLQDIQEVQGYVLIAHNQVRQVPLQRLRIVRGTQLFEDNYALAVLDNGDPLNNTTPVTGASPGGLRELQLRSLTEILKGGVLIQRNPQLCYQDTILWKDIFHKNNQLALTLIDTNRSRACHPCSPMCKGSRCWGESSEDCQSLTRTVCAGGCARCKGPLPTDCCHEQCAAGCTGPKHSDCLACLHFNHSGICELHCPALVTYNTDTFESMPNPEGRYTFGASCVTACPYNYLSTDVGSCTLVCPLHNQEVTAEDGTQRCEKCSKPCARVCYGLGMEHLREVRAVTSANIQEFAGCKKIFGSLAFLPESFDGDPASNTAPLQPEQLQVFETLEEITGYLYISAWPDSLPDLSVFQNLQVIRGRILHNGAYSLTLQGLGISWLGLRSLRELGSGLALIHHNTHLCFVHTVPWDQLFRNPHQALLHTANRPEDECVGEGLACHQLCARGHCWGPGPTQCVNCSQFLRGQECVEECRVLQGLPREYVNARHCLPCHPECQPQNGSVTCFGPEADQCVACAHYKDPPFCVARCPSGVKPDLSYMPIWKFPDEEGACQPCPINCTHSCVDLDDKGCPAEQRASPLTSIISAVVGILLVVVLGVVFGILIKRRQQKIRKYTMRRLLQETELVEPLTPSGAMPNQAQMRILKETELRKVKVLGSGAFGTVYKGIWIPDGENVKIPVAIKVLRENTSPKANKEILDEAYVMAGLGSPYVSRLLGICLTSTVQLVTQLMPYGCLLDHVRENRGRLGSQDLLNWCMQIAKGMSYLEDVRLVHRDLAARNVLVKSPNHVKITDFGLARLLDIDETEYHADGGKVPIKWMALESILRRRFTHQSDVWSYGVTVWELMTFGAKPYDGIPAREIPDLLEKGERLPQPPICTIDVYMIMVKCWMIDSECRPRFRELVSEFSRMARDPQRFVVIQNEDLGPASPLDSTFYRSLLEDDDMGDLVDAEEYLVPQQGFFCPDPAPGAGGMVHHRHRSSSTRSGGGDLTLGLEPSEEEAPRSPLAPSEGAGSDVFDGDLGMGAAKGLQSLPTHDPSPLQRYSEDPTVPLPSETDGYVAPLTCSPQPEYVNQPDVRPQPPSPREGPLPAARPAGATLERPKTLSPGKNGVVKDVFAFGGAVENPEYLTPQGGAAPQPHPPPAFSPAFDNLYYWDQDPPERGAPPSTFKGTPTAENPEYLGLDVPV
EGFR WT, sequence (P00533 25-1210): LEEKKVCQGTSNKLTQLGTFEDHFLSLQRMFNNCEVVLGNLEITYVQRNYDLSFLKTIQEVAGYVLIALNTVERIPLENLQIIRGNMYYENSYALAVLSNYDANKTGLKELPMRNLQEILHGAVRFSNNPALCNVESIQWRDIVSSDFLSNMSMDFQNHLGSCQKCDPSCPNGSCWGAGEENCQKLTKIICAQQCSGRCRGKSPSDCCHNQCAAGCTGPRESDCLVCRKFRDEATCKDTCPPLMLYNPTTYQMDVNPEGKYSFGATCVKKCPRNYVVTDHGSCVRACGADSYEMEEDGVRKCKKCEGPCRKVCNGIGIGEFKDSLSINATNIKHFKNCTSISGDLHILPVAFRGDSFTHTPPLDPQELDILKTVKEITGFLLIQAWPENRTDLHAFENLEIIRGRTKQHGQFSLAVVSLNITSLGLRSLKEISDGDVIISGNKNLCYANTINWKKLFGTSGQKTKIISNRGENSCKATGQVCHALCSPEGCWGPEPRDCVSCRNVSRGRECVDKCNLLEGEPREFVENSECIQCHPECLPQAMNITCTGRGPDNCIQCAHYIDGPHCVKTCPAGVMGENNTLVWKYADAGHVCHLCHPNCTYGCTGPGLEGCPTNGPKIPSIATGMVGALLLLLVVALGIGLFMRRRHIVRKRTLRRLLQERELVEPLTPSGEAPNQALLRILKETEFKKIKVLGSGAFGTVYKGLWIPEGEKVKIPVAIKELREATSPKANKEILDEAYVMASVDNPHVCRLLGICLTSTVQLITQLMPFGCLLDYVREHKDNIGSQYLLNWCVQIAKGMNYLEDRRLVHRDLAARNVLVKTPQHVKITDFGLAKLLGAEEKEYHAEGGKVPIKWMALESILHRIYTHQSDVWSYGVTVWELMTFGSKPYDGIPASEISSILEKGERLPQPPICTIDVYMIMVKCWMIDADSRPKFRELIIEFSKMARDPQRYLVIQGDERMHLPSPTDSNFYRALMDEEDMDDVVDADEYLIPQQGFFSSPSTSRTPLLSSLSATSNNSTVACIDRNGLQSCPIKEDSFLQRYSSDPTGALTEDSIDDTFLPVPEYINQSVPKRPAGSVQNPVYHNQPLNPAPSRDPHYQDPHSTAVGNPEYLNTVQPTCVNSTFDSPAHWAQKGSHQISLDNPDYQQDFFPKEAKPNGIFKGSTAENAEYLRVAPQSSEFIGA

As for `C=CC(=O)N1CC=C(c2ncc3ncnc(Nc4ccc(Oc5ccn6ncnc6c5)c(C)c4F)c3n2)C[C@@H]1C` [Compound 404, (S)-1-(4-(8-((4-([1,2,4]triazolo[1,5-a]pyridin-7-yloxy)-2-fluoro-3-methylphenyl)amino)pyrimido[5,4-d]pyrimidin-2-yl)-2-methyl-3,6-dihydropyridin-1(2H)-yl)prop-2-en-1-one], the IC50 against EGFR WT and against ErbB2 V777L was 100 to 500 nM in each case.
For `C=C(COC)C(=O)N1CC(F)(F)C12CN(c1ncc3ncnc(Nc4ccc(Oc5ccc6c(c5)nnn6C)c(C)c4)c3n1)C2` [Compound 214, 1-(3,3-difluoro-6-(8-((3-methyl-4-((1-methyl-1H-benzo[d][1,2,3]triazol-5-yl)oxy)phenyl)amino)pyrimido [5,4-d]pyrimidin-2-yl)-1,6-diazaspiro[3.3]heptan-1-yl)-2-(methoxymethyl) prop-2-en-1-one], the figures for the concentration for half-maximal inhibition (IC50) at EGFR WT and at ErbB2 V777L were 500 to 1000 nM and 100 to 500 nM, respectively.
In the same order, the values of `C=CC(=O)N1CCCN(c2ccc3ncnc(Nc4ccc(Oc5ccn6ncnc6c5)c(C)c4)c3n2)CC1` [Compound 357, 1-(4-(4-((4-([1,2,4]triazolo[1,5-a]pyridin-7-yloxy)-3-methylphenyl)amino)pyrido[3,2-d]pyrimidin-6-yl)-1,4-diazepan-1-yl)prop-2-en-1-one] are 500 to 1000 nM and 50 to 100 nM.
For `C=CC(=O)N1CCC12CCN(c1ncc3ncnc(Nc4ccc(Oc5ccc6c(c5)nnn6C)c(C)c4)c3n1)C2` (stereo not drawn) [Compound 222, 1-(6-(8-((3-methyl-4-((1-methyl-1H-benzo[d][1,2,3]triazol-5-yl)oxy)phenyl)amino)pyrimido[5,4-d]pyrimidin-2-yl)-1,6-diazaspiro[3.4]octan-1-yl)prop-2-en-1-one] the same measures were 50 to 100 nM and 50 to 100 nM.
In the same order, the values of `C=CC(=O)N1CCN(c2ncc3ncnc(Nc4ccc(Oc5cnc6c(c5)ncn6C)c(C)c4F)c3n2)C[C@H]1C` [Compound 158, (R)-1-(4-(8-((2-fluoro-3-methyl-4-((3-methyl-3H-imidazo[4,5-b]pyridin-6-yl)oxy)phenyl)amino)pyrimido[5,4-d]pyrimidin-2-y1)-2-methylpiperazin-1-yl)prop-2-en-1-one] are 100 to 500 nM and 100 to 500 nM.
With `C=CC(=O)N[C@@H]1C[C@@H](F)CN(c2ccc3ncnc(Nc4ccc(Oc5ccc6c(c5)nnn6C)c(C)c4F)c3n2)C1` [Compound 295, N-((3R,5R)-5-fluoro-1-(4-((2-fluoro-3-methyl-4-((1-methyl-1H-benzo[d][1,2,3]triazol-5-yl)oxy)phenyl)amino)pyrido[3,2-d]pyrimidin-6-yl)piperidin-3-yl)acrylamide], the IC50 on EGFR WT and against ErbB2 V777L was 100 to 500 nM throughout.
As for `C=CC(=O)N1CC2CC1CN2c1ncc2ncnc(Nc3ccc(Oc4ccc5c(c4)nnn5C)c(C)c3)c2n1` (stereo not drawn) [Compound 61, 1-(5-(8-((3-methyl-4-((1-methyl-1H-benzo[d][1,2,3]triazol-5-yl)oxy)phenyl)amino)pyrimido[5,4-d]pyrimidin-2-yl)-2,5-diazabicyclo[2.2.1]heptan-2-yl)prop-2-en-1-one], the figures for the IC50 on EGFR WT and on ErbB2 V777L were under 50 nM and 50 to 100 nM, respectively.
For `C=CC(=O)N(C)[C@@H]1CCCN(c2ncc3ncnc(Nc4ccc(Oc5ccc6c(c5)nnn6C)c(C)c4)c3n2)C1` [Compound 129, (R)-N-methyl-N-(1-(8-((3-methyl-4-((1-methyl-1H-benzo[d][1,2,3]triazol-5-yl)oxy)phenyl)amino)pyrimido[5,4-d]pyrimidin-2-y1)piperidin-3-yl)acrylamide] the same measures were 100 to 500 nM and 50 to 100 nM.
For `C=CC(=O)N1CC2CC(C1)N2c1ccc2ncnc(Nc3ccc(Oc4ccc5c(c4)nnn5C)c(C)c3)c2n1` [Compound 96, 1-(6-(4-((3-methyl-4-((1-methyl-1H-benzo[d][1,2,3]triazol-5-yl)oxy)phenyl)amino)pyrido[3,2-d]pyrimidin-6-yl)-3,6-diazabicyclo[3.1.1]heptan-3-yl)prop-2-en-1-one] the same measures were 100 to 500 nM and 100 to 500 nM.
